Test system: B/C.N cells
Assay: CML assay: peptide sensitization of B/C.N cells to lysis by tumor-specific CTL
Assay type: cell-based, mouse
Settings: for ability to sensitize B/C.N cells to lysis by tumor-specific CTL: 51Cr release, 4 hours

| Substance | ability to sensitize B/C.N cells to lysis by tumor-specific CTL | peptide concentration sufficient to sensitize targets to lysis by CTL (B/C.N targets) | peptide concentration that did not sensitize targets to lysis by CTL (B/C.N targets) |
| --- | --- | --- | --- |
| L345-54 (I54): ribosomal protein L3 peptide, amino acids 45-54 with Ile 54 (AFLGYKAGMI) | did not |  |  |
| L348-56 (I54): ribosomal protein L3 peptide, amino acids 48-56 with Ile 54; target epitope of tumor-specific CTL (GYKAGMIHI) | sensitized B/C.N to lysis | 10 nM |  |
| L348-56 (T54): wild type ribosomal protein L3 peptide 48-56 with Thr 54 (GYKAGMTHI) [reference compound] | did not |  | > 100 mM |

Source: US7910551B2, “Gene differentially expressed in breast and bladder cancer and encoded polypeptides” (University of Rochester, priority 2000, dated 2011)
